Source: patent US5843966A, “Piperidine derivatives” (Glaxo Group Limited, priority 1993, dated 1998)
Where a name gives a salt, the structure may show the parent alone.

Test system: radiation-induced emesis in the ferret
Experiment: Inhibition of radiation-induced emesis in the ferret
Format: in vivo
Conditions: compound administered 1.5 hours prior to irradiation
Description: In this model of emesis the onset of retching and vomiting occurs approximately 20 minutes after whole body irradiation (2 Grey.ident.200 Rads). The test compound is administered (e.g. i.p, p.o., i.v., s.c) immediately after irradiation and its effect on emesis determined by comparison with appropriate controls.
Alternatively, the test compounds may be administered before irradiation or before treatment with an emetogen, for example 1.5, 3 or 6 hours before irradiation.

SMILES | inhibition of radiation-induced emesis (0.03 mg/kg s.c.) | inhibition of radiation-induced emesis (0.1 mg/kg s.c.)
COc1ccc(-n2nnnc2C(F)(F)F)cc1CN[C@H]1CCCN[C@H]1c1ccccc1 [Example 7, [2-Methoxy-5-(5-trifluoromethyl-tetrazol-1-yl)-benzyl]-(2S,3S]-2-phenyl-piperidin-3-yl)-amine dihydrochloride] | inhibited radiation-induced emesis | 
COc1ccc(-n2cnnn2)cc1CN[C@H]1CCCN[C@H]1c1ccccc1 [Example 2] |  | inhibited radiation-induced emesis
